We go through 3 compounds from patent US7037919B1, “Tetrahydroquinoline derivatives” (Kaken Pharmaceutical Co. Ltd., priority 1999, dated 2006).

Test [1] concerns orchiectomized (ORX) rats. The test can be described thus: Action of increasing prostate weight and bone mineral density in orchiectomized (ORX) rats (Test Example 4). The class given is in vivo, rat. The conditions noted are these: 60 mg/kg s.c. once daily, 5 days weekly, 4 weeks, ORX SD rats, Mean ± SD; for Bone mineral density: right femur. As to the method: Action of Increasing Prostate Weight and Bone Mineral Density in Orchiectomized (ORX) Rats
Orchiectomy was performed in 12-week-old male SD rats. From the next day postoperation, the positive control compound dihydrotestosterone (DHT, 10 mg/kg) and the compound of the present invention (Example 60, 60 mg/kg), each dissolved in a 5% dimethyl sulfoxide-containing olive oil solution, were subcutaneously injected once daily, 5 days weekly, for 4 weeks. On the next day after final administration, the wet weight of the ventral prostate was measured to evaluate the AR agonistic effect of the compound of the present invention. On the next day following final administration, moreover, the right femur was removed, and fixed overnight in a 10% neutrally buffered formalin solution. Then, the bone mineral density at the site ranging from the diaphysis to the proximal end was measured by the method of double energy X-ray absorption using a bone mineral content-measuring machine (Aloka, DCS-600) to evaluate increasing action of bone mineral density of the compound of the present invention.

Test [2] concerns orchiectomized (ORX) rats. The test is described as follows: Action of increasing prostate weight in orchiectomized (ORX) rats (Test Example 3). The test is classed as in vivo, rat. The conditions noted are these: 30 mg/kg s.c. once daily for 8 days, ORX SD rats, Mean ± SD. The protocol:
Action of Increasing Prostate Weight in Rats After Orchiectomized (ORX) Rats
Orchiectomy was performed in 8-week-old male SD rats. From 5 days postoperation, the compound of the present invention (Example 60, 30 mg/kg), dissolved in a 5% dimethyl sulfoxide-containing olive oil solution, was subcutaneously injected once daily for 8 days. On the next day after final administration, the wet weight of the ventral prostate was measured to evaluate the AR agonistic effect of the compound of the present invention.

Test [3] addresses T1, Rat androgen receptors (rat AR) (Rattus norvegicus, UniProt P15207).
T1 construct: from tissue; host or cells: prostate of orchiectomized male SD rats (100,000 x g supernatant)
T1 sequence (P15207 1-902): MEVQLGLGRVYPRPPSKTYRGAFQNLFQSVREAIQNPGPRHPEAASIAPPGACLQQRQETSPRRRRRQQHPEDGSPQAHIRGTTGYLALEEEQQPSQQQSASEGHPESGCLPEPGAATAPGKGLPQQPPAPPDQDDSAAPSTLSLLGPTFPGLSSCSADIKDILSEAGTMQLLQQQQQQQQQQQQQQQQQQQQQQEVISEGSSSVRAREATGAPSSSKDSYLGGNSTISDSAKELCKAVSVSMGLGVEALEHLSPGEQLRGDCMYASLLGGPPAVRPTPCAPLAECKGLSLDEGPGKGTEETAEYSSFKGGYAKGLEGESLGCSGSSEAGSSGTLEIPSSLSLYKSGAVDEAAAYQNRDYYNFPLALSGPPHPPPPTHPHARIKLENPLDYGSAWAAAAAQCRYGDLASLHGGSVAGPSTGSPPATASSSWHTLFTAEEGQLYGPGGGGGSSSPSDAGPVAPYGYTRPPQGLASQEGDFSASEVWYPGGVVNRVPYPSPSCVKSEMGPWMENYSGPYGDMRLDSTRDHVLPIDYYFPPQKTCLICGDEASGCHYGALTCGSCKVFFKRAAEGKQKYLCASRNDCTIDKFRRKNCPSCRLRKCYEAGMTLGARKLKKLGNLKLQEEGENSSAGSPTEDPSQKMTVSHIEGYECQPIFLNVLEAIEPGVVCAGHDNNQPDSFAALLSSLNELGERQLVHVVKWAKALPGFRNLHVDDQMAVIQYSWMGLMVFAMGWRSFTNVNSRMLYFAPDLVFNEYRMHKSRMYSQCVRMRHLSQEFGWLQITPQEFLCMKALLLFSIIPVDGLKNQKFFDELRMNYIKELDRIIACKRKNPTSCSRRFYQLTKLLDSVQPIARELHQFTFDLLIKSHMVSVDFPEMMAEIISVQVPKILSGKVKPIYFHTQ
The test is described as follows: Test for competitive binding to rat androgen receptors. To be noted: 3H-testosterone, rat prostate AR fraction; hydroxyflutamide taken as 100. The protocol: Test for Competitive Binding to Rat Androgen Receptors (Rat AR)
Preparation of rat AR fraction: Prostates were harvested into ice-cooled ET buffer (10 mM Tris, 1 mM EDTA, 5 mM DTT, 10 mM sodium molybdate, pH 7.4) 3 days after orchiectomy in 11-week-old male SD rats. The prostate was finely cut, and ET buffer was added, whereafter the mixture was homogenized using a homogenizer. The homogenate was ultracentrifuged (100,000×g, 60 min, 4° C.), and the supernatant was used as a rat AR fraction (hereinafter referred to as ARF).
Binding test: ^3H-testosterone (hereinafter referred to as ^3H-T) was diluted with ET buffer. Dihydrotestosterone (DHT) was prepared so as to have a concentration (final concentration 1 μM) 400 times the maximum concentration of ^3H-T (2.5 nM). The ^3H-T solution was added to a 1.5 ml tube containing DHT, no DHT, or the test compound with a varying concentration. Further, 200 μg ARF was added to adjust the final volume to 100 μl. The mixture was incubated for 2 hours at 4° C., and then 300 μl of a 0.05% dextran T70-1.0% activated carbon solution was added. The mixture was further incubated for 15 minutes in ice to remove the free ^3H-T. After centrifugation (4° C., 2,500 rpm, 5 min), 275 μl of the supernatant was harvested into a liquid scintillation vial, and 2 ml of clear-sol was added. The mixture was stirred, allowed to stand, and measured for ^3H radioactivity with a liquid scintillation counter.
Calculation of the relative binding inhibition rate: The binding inhibition rate (%) of the compound according to the present invention was calculated from the following equation, and the 50% inhibition concentration (IC50) was calculated by the probit analysis of the concentration-binding inhibition curve.
The relative binding inhibition rate (RBA: Relative Binding Affinity) was obtained from the following equation (Endocrinology 138, 863-870, 1997): RBA=100×(IC50 of hydroxyflutamide)/(IC50 of the compound of the present invention) • RBA's of the compounds of the present invention, calculated as above, are shown in Table 10.

Test [4] relates to AR. The test can be described thus: Assignment of compounds as having AR agonistic or AR antagonistic action (description, no method given). The conditions noted are these: compounds named as usable for category A diseases.
The subject of test [5] is orchiectomized rats. The test can be described thus: Inhibitory action on testosterone-induced prostate weight increase in orchiectomized rats (Test Example 5). The test is classed as in vivo, rat. The conditions noted are these: TP 1 mg/kg s.c. alone, once daily for one week, orchiectomized SD rats, Mean ± SD. As to the method: Inhibitory Action on Testosterone-induced Prostate Weight Increase in Orchiectomized Rats
Testes were removed from 8-week-old male SD rats. From 5 days postoperation, 1 mg/kg of testosterone propionate (hereinafter referred to as TP) and 30 mg/kg of the compound of the present invention were simultaneously injected once daily for one consecutive week. The compound of the present invention was suspended in a 0.5% methyl cellulose solution, while TP was dissolved in cottonseed oil containing 5% ethanol. Each of the test compounds was subcutaneously administered. On the next day after final administration, the wet weight of the ventral prostate was measured to evaluate the AR antagonistic effect of the compound of the present invention on TP-induced prostate weight increase.

On to `CCS(=O)(=O)NCC(C)(C)C1Nc2ccc([N+](=O)[O-])cc2C2C=CCC21` (stereo not shown) [Example 60], for which the values for the Prostate weight result in test [1] and in test [1] (listed as Ex. 60) were “significant increases in the prostate weights” and 56 ± 13 mg/body weight 100 g, respectively. The Bone mineral density result was “significantly increased the bone mineral density” in test [1] (60 mg/kg) and 132 ± 7 mg/cm^2 in test [1] (listed as Ex. 60, 60 mg/kg). For the same compound, the Weight of prostate result in test [2] is recorded as “significantly increased the prostate weights”. Also, the “RBA (Relative Binding Affinity = 100 x IC50 of hydroxyflutamide / IC50 of the compound)” value in test [3] is recorded as 814. For the same compound, the AR agonistic action result in test [4] was “AR agonistic action”.
`CC(C)NC(=S)NCC(C)(C)C1Nc2ccc([N+](=O)[O-])cc2C2C=CCC21` (stereo not shown) [Example 69] showed a Weight of prostate in test [2] of 21 ± 2 mg/body weight 100 g. The “RBA (Relative Binding Affinity = 100 x IC50 of hydroxyflutamide / IC50 of the compound)” value in test [3] is 244.
Turning to `CCC(=O)O[C@H]1CC[C@H]2[C@@H]3CCC4=CC(=O)CC[C@]4(C)[C@H]3CC[C@]12C` [TP, testosterone propionate], in test [5], the Prostate weight is given as 80.4 ± 13.7 mg/body weight 100 g.
